Legend:
[1] = test system: S100A8; experiment: Microarray gene expression, hippocampus of SAMP8 mice (Example 3); type: in vivo, mouse; conditions: for Hybridization signal sample_Cy5 S100A8 / log2 (sample/control) S100A8: SAMP8 female pool
Procedure: (§1) Total RNA was extracted from samples using the RNeasy extraction kit (Qiagen). The quality and concentration of the RNA was analyzed using the Agilent 2100 bioanalyzer and NanoDrop™ ND-1000 (Thermo Scientific). Samples with RNA integrity number (RIN)<6.0 were discarded. Total RNA (0.5 μg) amplification and labelling with Cy3 or Cy5 was carried out using the Eberwein mRNA amplification procedure (Van Gelder et al, Proc Natl Acad Sci USA 1990, 87:1663-1667) employing the MessageAmp™ aRNA amplification kit from Ambion (Applied Biosystems) following the manufacturer's instructions with minor modifications. As hybridization controls, plant mRNAs were transcribed from a plasmid containing the Zea mays Xet (xyloglucan endo-transglycosylase) cDNA and from a plasmid containing the Zea mays Zmmyb42 cDNA, independently prepared Cy3 and Cy5 labelled aRNA from these two RNAs using the Eberwein mRNA amplification procedure (as disclosed in Cerdà et al, Gen Comp Endocrinol 2008, 156:470-481).
(§2) The Cy3- and Cy5-labelled cRNAs and spikes were combined and hybridized to the microarray described in Example 2.6 for 17 h at 60° C. using Agilent's gaskets G2534-60002, G2534A hybridization chambers and DNA Hybridization Oven G2545A, according to the manufacturer's instructions. More specifically, equal amounts of Cy3 and Cy5 labeled Xet aRNA as well as equal amounts of Cy3 and Cy5 labeled Zmmyb42 aRNA were spiked into each mixture hybridized to the array. Arrays were washed and raw data were obtained using Agilent's DNA Microarray Scanner G2505B and Feature Extraction software (v10.1). The raw fluorescence intensity data were processed using applicant's proprietary software, and consists in the following operations:
(§3) Data normalization was carried out by an improved version of the nonlinear Q-splines normalization method (Workman et al., Genome Biol 2002, 3(9):research0048.1-0048.16). Normalization results were presented graphically as MA plots, as first described by Dudoit et al (Dudoit et al, Statistica Sinica, 2002, 12:111-139). Each point corresponds to a probe of the DNA array. M values (vertical axis) are the log-differential expression ratios. A values (horizontal axis) are the log-intensities of the spots. M and A are calculated from the Cy5 and Cy3 intensity values as of each spot. The DNA Array data is normalized using an improved version of non-linear Q-Splines normalization described by Workman et al., Genome Biol 2002, 3(9):research0048.1-0048.16. This process is useful to correct the deviation of the M values from the statistical assumption that most of the spots have M=0 in MA plots. The method allows the adjustment of all M values to form a cloud centered at M=0 in all intensity ranges. The data used to calculate the normalization fitting curve is the totality of the raw measurement dataset, excluding the signals for the probes for the spiked-in plant RNA controls and negative controls. In order to be able to normalize properly the data among all the experiments, the probe-set must include an important group of genes that should have no change (M=0) in the experiment. The normalization function is then applied to all the data, including controls.
(§4) Normalized and log-transformed data were used to calculate log 2 (sample/control) and Fold Change (FC) values. No background subtraction was applied to the signal intensity values during data processing, permitting robust selection of differentially expressed genes with low expression levels at the cost of potential sub-estimation of change when intensity levels are close to the array background level.
(§5) The technical replicate analysis is the statistical processing of the microarray data. Replicates were calculated to measure oligo replicates on an array or between replicates of experiments on different arrays (i.e. hybridization of the same sample). […]

[2] = test system: S100A9; experiment: as above; type: in vivo, mouse; conditions: for Hybridization signal sample_Cy5 S100A9 / log2 (sample/control) S100A9: SAMP8 female pool
Procedure: as §1, §2, §3, §4, §5

[3] = SAMP8 females, treatment vs vehicle

(−) 5-((((trans)-2-(4-(benzyloxy)phenyl)cyclopropyl)amino)methyl)-1,3,4-oxadiazol-2-amine [Compound 1]
Hybridization signal sample_Cy5 S100A8 ([1]; HD 3.2 mg/kg/day): 77.0786 | log2 (sample/control) S100A8 ([1]; HD 3.2 mg/kg/day vs SAMP8 VEH): −0.1813 | Hybridization signal sample_Cy5 S100A8 ([1]; LD 0.96 mg/kg/day): 70.7119 | log2 (sample/control) S100A8 ([1]; LD 0.96 mg/kg/day vs SAMP8 VEH): −0.2255 | S100A8 expression (microarray) [1, 3]: down-regulated | Hybridization signal sample_Cy5 S100A9 ([2]; HD 3.2 mg/kg/day): 73.2282 | log2 (sample/control) S100A9 ([2]; HD 3.2 mg/kg/day vs SAMP8 VEH): −0.7647 | Hybridization signal sample_Cy5 S100A9 ([2]; LD 0.96 mg/kg/day): 66.4843 | log2 (sample/control) S100A9 ([2]; LD 0.96 mg/kg/day vs SAMP8 VEH): −0.8381 | S100A9 expression (microarray) [2, 3]: down-regulated

From patent publication US20180284095A1, “BIOMARKERS ASSOCIATED WITH LSD1 INHIBITORS AND USES THEREOF” (Oryzon Genomics, S.A., priority 2015, published 2018)
